Positions count from the first letter of the chain named. One block for each compound: values may come before it. Where a SMILES comes first, the peptide text is derived from it. Bridges are numbered along the chain shown (N, C = ends). [ ]: non-standard residue; d: D form. Dap(N3) = [N-]=[N+]=NC[C@H](N)C(=O)O
Key:
[1] = system: HCT116 cells; experiment: cells; type: cell-based, human; conditions: Homo sapiens, HCT-116, 96 h; HCT116 cells, 4 day incubation, SYTOX green imaging, average of at least four independent repeats; read-out: GI50
Procedure: (§1) page 47: 1.5. Biological experimental 1.5.1. […] The experiment was performed in duplicates. 1.5.2. […] 1.5.3. […] 46

[2] = system: U2OS cells; experiment: cells; type: cell-based, human; conditions: Homo sapiens, 96 h; U2OS cells, 4 day incubation, SYTOX green imaging, average of at least four independent repeats; read-out: GI50
Procedure: as §1

[3] = target: T1, CK2α (Homo sapiens, UniProt P68400); experiment: Fluorescence polarisation assay: displacement of fluorescein-labelled CK2β-derived probe from CK2α; type: binding; conditions: FP, 15 µM test compound, 450 nM CK2α, 7.4 nM CK2β_pep probe, 350 mM NaCl, 20 mM Mes pH 6.5, 30 min incubation, triplicates; approximate; read-out: % inhibition at 15 μM (CK2β-like probe displacement)
T1 construct: CK2α_WT was used (residues 2-329); His6 (N, cleaved yes); made in house; host or cells: Escherichia coli BL21(DE3)
T1 sequence (P68400 2-329): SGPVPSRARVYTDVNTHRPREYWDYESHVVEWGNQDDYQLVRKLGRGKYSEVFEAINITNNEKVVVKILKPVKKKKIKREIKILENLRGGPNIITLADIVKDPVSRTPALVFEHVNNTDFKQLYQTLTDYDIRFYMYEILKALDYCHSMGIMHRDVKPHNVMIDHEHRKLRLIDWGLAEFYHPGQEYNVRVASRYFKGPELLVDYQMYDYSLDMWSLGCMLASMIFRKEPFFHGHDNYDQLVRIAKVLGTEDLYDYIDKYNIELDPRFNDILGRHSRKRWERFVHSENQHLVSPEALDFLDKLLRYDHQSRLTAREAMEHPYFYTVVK
Text: Molecular modelling identified Cys2 and Gly11 of Pc,[34] corresponding to P185 and P194 of CK2β, as suitable residues to staple: they make negligible contributions to the binding and are positioned at a suitable distance from each other to accommodate a 2C-CuAAC staple (ESI, Fig. S1 ^†). To cyclise the peptide, azido amino acids bearing one-carbon-atom side chains (Fmoc-Aza-OH) were used in combination with aliphatic linkers of different lengths as proposed by molecular modelling (Fig. 2 and ESI Table S1 ^†). The ability of the synthesised macrocycles to disrupt the α/β PPI of CK2 was then tested in a preliminary fluorescent polarisation assay (FP) (Fig. 2). […]
(§2) lysed using a high-pressure homogeniser.
(§3) The soluble supernatant was applied on a […]
(§4) mM NaCl, 1mM DTT, 1mM EDTA, pH 8.5). 100µL of the precision protease was loaded onto the […]
Pure protein was concentrated to 15 mg/mL and flash frozen in liquid N2.
1.4.2. Fluorescent Polarisation anisotropy
Approximate % inhibition of
The experiment was performed in triplicates.
(§5) 1.4.3. Isothermal Calorimetry Titration
(§6) 1.4.3.1. Direct binding assay
(§7) DMSO) and concentrated to 20-50 μM. Compounds in 100× stock solutions were diluted into the […]
(§8) Control titrations were performed, and the […]

[4] = pH 6.5
[5] = target: T2, CK2α/CK2β interaction (Homo sapiens, UniProt P68400); experiment: ITC competition assay: CK2β binding to CK2α alone and in the presence of peptide; conditions: 25°C
T2 construct: CK2α_WT was used (residues 2-329); His6 (N, cleaved yes); made in house; host or cells: Escherichia coli BL21(DE3)
T2 sequence (P68400 2-329): T1 sequence (P68400 2-329)
Procedure: We then wanted to investigate whether the peptides would be able to inhibit the binding of the β subunit to the α subunit. To this end, the binding affinity of the regulatory β subunit for the catalytic domain was determined via ITC (Kd 9 nM). This was then repeated in the presence of 100 μM P1-C4 and P2-C4 (ESI, Table S4 ^†). […] As one of the key roles of CK2β is to recruit substrates to the kinase, the effect of PPI inhibition on substrate phosphorylation was studied using CK2β dependent and independent substrates. […] It should be noted that the kinase assay was performed using the pre-formed CK2α/β complex as the ability of CK2α to phosphorylate eIF2β requires the presence of the CK2β subunit.
1.4.3.2. Competition assay […]
concentrated to 4-6 μM. CK2β (9.3 mg/mL, 20 mM Tris pH 8.5, 500 mM NaCl) was diluted in Tris buffer (200 mM, NaCl, 300 mM, 10% DMSO) and concentrated to 40 μM. In a typical experiment, […]
performed at 150 second intervals. The syringe was loaded with CK2β and rotated at 750 rpm. The same experiment was repeated in the presence of the peptide s: compounds at 1 mM in DMSO were added to the solutions of CK2α and CK2β (prepared as described above) to a final concentration of […]
binding model using Origin software. […]
(CK2β-RAD) 200s, baseline 120s (assay buffer), control loading 200s (RAD), baseline 150s (assay buffer), ligand binding (association) 400s (CK2α K74A and CAM7117) and ligand dissociation 600s (assay buffer), followed by regeneration and next cycles. […]
GraphPad. The results are the average of 4 repeats and error shown as SEM.
Figure S10- Sensorgrams of the BLI competition experiments to assess the ability of P2-C4 to […] the CK2α/CK2β-RAD complex. a) Concentration of peptide ranging from 10 to 0.025 μM and 0 μM. b) Concentration of peptide ranging from 10 to 5 nM and 0 nM.
(1 picture or pasted object on this page, not shown here)

[6] = target: T3, CK2α (Homo sapiens, UniProt P68400, K74A/K75A/K76A/R21S); experiment: Isothermal titration calorimetry, direct binding to CK2α; conditions: ITC, 25°C, CK2α_KA, Tris 200 mM, NaCl 300 mM, 10% DMSO, single site binding model
T3 construct: CK2α_KA (residues 2 -329) contained four; His6 (N, cleaved yes); made in house; host or cells: Escherichia coli BL21(DE3)
T3 sequence (P68400 2-329 R21S/K74A/K75A/K76A): T1 sequence (P68400 2-329) with R20S, K73A, K74A, K75A
Procedure: as §2, §3, §4
Pure protein was concentrated to 15 mg/mL and flash frozen in liquid N2. […]
as §5, §6, §7, §8

Compound: O=C(O)c1ccc2c(c1)nc(Nc1cccc(Cl)c1)c1ccncc12 [CX4945, reference compound]
GI50 [1]: 14 ± 2 µM
GI50 [2]: 7 ± 1 µM

inhibition at 15 µM [3]: 0.6 ± 0.5%
Compound: CC[C@H](C)[C@@H]1NC(=O)[C@H](CCCCN)NC(=O)[C@H](Cc2ccccc2)NC(=O)CNC(=O)[C@H](Cc2ccc(O)cc2)NC(=O)[C@H](CC(C)C)NC(=O)[C@H](CCCNC(=N)N)NC(=O)[C@@H](NC(C)=O)Cn2cc(nn2)CCc2cn(nn2)C[C@@H](C(N)=O)NC(=O)[C@H](Cc2c[nH]cn2)NC1=O [P0-C1]

Solubility under the assay conditions [4]: insoluble
Compound: CC[C@H](C)[C@@H]1NC(=O)[C@H](CCCCN)NC(=O)[C@H](Cc2ccccc2)NC(=O)CNC(=O)[C@H](Cc2ccc(O)cc2)NC(=O)[C@H](CC(C)C)NC(=O)[C@H](CCCNC(=N)N)NC(=O)[C@@H](NC(=O)CNC(C)=O)Cn2cc(nn2)Cc2cn(nn2)C[C@@H](C(=O)NCC(=O)NCC(N)=O)NC(=O)[C@H](Cc2c[nH]cn2)NC1=O [P1-C3]

Compound: CK2β: regulatory β subunit of CK2, recombinant construct (1-198)
Kd ([5]; CK2β in the syringe, CK2α in the cell, no peptide, read-out: Kd of the regulatory β subunit for the catalytic domain CK2α): 0.009 µM

Kd [6]: 1 µM
Compound: CC[C@H](C)[C@@H]1NC(=O)[C@H](CCCCN)NC(=O)[C@H](Cc2ccccc2)NC(=O)CNC(=O)[C@H](Cc2ccc(O)cc2)NC(=O)[C@H](CC(C)C)NC(=O)[C@H](CCCNC(=N)N)NC(=O)[C@@H](NC(=O)CNC(C)=O)CSSC[C@@H](C(=O)NCC(N)=O)NC(=O)CNC(=O)[C@H](Cc2c[nH]cn2)NC1=O [Pc, reference compound] (Ac-GCRLYGFKIHGCG-NH2; disulfide 2-12)

Solubility under the assay conditions [4]: insoluble
Compound: GXC2RLYGFKIHXC2GG (sidechain bridge or staple) [P1-C2]

Kd [6]: 44 µM
Compound: CC(=O)NCC(=O)N[C@@H](CN=[N+]=[N-])C(=O)N[C@@H](CCCNC(=N)N)C(=O)N[C@@H](CC(C)C)C(=O)N[C@@H](Cc1ccc(O)cc1)C(=O)NCC(=O)N[C@@H](Cc1ccccc1)C(=O)N[C@@H](CCCCN)C(=O)N[C@@H](Cc1c[nH]c2ccccc12)C(=O)N[C@@H](Cc1c[nH]cn1)C(=O)N[C@@H](CN=[N+]=[N-])C(=O)NCC(=O)NCC(N)=O [P2] (Ac-G[Dap(N3)]RLYGFKWH[Dap(N3)]GG-NH2)

Kd [6]: 0.46 µM
Binding of CK2β to CK2α in the presence of peptide ([5]; 100 μM peptide, preliminary assay): no binding of CK2β to CK2α was detected
inhibition at 15 µM [3]: 93 ± 1%
Compound: CC[C@H](C)[C@@H]1NC(=O)[C@H](CCCCN)NC(=O)[C@H](Cc2ccccc2)NC(=O)CNC(=O)[C@H](Cc2ccc(O)cc2)NC(=O)[C@H](CC(C)C)NC(=O)[C@H](CCCNC(=N)N)NC(=O)[C@@H](NC(=O)CNC(C)=O)Cn2cc(nn2)-c2cc(C(=O)O)cc(c2)-c2cn(nn2)C[C@@H](C(=O)NCC(=O)NCC(N)=O)NC(=O)[C@H](Cc2c[nH]cn2)NC1=O [P1-C4]

From publication PMC6530537, “Efficient development of stable and highly functionalised peptides targeting the CK2α/CK2β protein–protein interaction” (Chemical Science, 2019)
